Consider 49 molecules from US9006450B2 (Boehringer Ingelheim International GmbH, priority 2010, dated 2015).

The structures appear in SMILES notation.

T1 sequence (O00763 129-2458 limits assumed): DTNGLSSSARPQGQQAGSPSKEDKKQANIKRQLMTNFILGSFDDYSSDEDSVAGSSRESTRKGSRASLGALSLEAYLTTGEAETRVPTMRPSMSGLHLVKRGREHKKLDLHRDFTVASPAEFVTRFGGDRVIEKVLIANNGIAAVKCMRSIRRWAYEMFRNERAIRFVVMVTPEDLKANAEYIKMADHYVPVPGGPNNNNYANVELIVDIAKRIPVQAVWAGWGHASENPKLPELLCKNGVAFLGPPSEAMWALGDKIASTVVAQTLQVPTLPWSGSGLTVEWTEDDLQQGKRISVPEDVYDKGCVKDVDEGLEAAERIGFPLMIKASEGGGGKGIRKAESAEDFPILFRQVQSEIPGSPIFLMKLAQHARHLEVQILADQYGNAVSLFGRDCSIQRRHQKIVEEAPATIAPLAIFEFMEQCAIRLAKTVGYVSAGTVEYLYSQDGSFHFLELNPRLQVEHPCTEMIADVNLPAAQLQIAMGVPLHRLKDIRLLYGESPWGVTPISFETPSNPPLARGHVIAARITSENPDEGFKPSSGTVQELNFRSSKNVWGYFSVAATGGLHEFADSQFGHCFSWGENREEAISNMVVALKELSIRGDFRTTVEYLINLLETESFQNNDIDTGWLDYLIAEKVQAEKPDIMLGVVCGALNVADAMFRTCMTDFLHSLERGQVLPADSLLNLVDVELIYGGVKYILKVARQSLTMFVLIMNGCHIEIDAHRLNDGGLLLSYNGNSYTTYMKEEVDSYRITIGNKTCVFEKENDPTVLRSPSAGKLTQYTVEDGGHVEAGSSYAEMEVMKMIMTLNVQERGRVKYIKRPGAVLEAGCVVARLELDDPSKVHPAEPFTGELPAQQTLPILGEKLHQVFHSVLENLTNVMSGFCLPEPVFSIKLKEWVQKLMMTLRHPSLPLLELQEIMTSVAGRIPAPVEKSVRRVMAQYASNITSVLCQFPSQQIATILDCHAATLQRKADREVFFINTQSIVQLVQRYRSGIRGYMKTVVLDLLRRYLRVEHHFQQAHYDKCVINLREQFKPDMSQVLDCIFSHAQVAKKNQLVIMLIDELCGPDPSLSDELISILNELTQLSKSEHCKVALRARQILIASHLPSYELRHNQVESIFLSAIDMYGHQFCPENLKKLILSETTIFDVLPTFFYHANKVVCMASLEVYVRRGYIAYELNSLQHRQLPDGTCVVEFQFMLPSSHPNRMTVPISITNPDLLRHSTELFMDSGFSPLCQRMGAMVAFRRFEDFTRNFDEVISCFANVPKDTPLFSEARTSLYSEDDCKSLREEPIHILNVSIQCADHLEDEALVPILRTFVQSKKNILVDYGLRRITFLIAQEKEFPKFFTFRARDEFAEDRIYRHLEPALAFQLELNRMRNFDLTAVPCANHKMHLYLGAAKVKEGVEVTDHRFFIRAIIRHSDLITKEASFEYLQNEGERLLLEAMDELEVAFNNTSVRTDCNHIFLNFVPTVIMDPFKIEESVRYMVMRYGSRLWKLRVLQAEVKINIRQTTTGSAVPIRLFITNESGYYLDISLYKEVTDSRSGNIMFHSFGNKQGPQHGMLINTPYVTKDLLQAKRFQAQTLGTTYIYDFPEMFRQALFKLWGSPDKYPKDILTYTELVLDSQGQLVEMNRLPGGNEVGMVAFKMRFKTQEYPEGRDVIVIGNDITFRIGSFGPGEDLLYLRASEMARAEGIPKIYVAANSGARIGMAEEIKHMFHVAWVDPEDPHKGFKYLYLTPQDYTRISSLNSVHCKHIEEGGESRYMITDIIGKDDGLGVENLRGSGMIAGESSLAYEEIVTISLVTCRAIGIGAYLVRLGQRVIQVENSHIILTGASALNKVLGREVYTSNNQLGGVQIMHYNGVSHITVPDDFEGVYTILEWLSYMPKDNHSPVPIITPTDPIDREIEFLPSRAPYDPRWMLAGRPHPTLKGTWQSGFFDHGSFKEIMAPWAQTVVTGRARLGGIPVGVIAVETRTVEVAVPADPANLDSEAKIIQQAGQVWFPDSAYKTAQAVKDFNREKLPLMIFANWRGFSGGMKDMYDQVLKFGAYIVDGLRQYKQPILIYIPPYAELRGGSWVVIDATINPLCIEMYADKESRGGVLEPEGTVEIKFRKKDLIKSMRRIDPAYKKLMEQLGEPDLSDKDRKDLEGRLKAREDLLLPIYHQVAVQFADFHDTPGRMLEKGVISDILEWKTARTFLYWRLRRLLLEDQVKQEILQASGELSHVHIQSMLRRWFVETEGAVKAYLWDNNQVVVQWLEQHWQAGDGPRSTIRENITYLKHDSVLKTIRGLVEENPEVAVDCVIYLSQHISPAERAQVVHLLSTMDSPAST

This experiment has as its target T1, human ACC2 (Homo sapiens, UniProt O00763).
T1 construct: made in house; host or cells: insect cells (baculoviral expression system)
Kind of experiment: ACC2 assay, spectrophotometric 384 well assay (NADH-linked, coupled lactate dehydrogenase/pyruvate kinase). It is filed as biochemical. The conditions noted are these: ACC2 assay, hACC2 construct lacking 128 N-terminal amino acids, 25° C., 340 nm; read-out: IC50. In short, it runs like this:
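ADP output tracked via pyruvate kinase/lactate dehydrogenase NADH oxidation, slope at 340 nm over 15 min, 25° C, with 500 μM ATP and 200 μM each acetyl-CoA and NADH. Enzyme: insect-cell-expressed human ACC2, N-terminal 128 residues deleted; pH 7.5 Tris with citrate, KHCO3. IC50 from four-parameter regression versus vehicle and no-acetyl-CoA controls.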
With `COc1cc(OC2CCC2)ccc1N1CCC(c2ccc([C@H](C)NC(C)=O)cc2)CC1` [Example 1.37], the 50% inhibitory concentration (IC50) came to 110 nM. The value for `CC(=O)N[C@@H](C)c1ccc(C2CCN(c3nc4ccccc4o3)CC2)cc1` [Example 4.9] was 1900 nM.

Consider `CC(=O)N[C@@H](C)c1ccc(C2CCN(c3ncc(-c4ccc(C)c(C)c4)cn3)CC2)cc1` [Example 10.47], for which the concentration for half-maximal inhibition (IC50) is 270 nM. The value for `CC(=O)N[C@@H](C)c1ccc(C2CCN(c3ccc(OC4COC4)cc3)CC2)cc1` [Example 8.9] was 600 nM; that for `CC(=O)N[C@@H](C)c1ccc(C2CCN(c3ccnc(O[C@@H]4CCOC4)c3)CC2)cc1` [Example 19.20] was 130 nM; that for `CC(=O)N[C@@H](C)c1ccc(C2CCN(c3cc(N4CCCC4)ncn3)CC2)cc1` [Example 11.113] was 200 nM. The value for `CCCOc1ccc(N2CCC(c3ccc([C@H](C)NC(C)=O)cc3)CC2)cc1OC` [Example 8.33] was 3500 nM; that for `CCOc1ccc(N2CCC(c3ccc([C@H](C)NC(=O)CC(=O)NC)cc3)CC2)cc1` [Example 33.2] was 8900 nM.

With `CC(=O)N[C@@H](C)c1ccc(C2CCN(c3ncc(-c4ccc5c(c4)OCCO5)cn3)CC2)cc1` [Example 10.23], the IC50 was 290 nM.

Take `CC(=O)N[C@@H](C)c1ccc(C2CCN(c3ccc4c(c3F)OCCO4)CC2)cc1` [Example 1.192]: the IC50 was determined as 120 nM. Consider `CC(=O)N[C@@H](C)c1ccc(C2CCN(c3ccc(OC4CCCC4)c(C#N)c3)CC2)cc1` [Example 8.36], for which the IC50 worked out at 2200 nM. In the case of `CCOc1ccc(N2CCC(c3ccc([C@H](C)NC(=O)N(C)CC4CC4)cc3)CC2)cc1` [Example 14.65] it was 3700 nM. As to `CC(=O)N[C@@H](C)c1ccc(C2CCN(c3ccnc(Oc4cncnc4)c3)CC2)cc1` [Example 3.5], the 50% inhibitory concentration (IC50) is 590 nM.

Consider `CCOc1ccc(N2CCC(c3ccc([C@H](C)NC(=O)c4ccncc4)cc3)CC2)cc1` [Example 6.40], for which the IC50 came out at 1200 nM. The value for `C[C@H](NC(=O)N(C)C)c1ccc(C2CCN(c3ncc(-c4ccc(C#N)cc4)cn3)CC2)cc1` [Example 10.109] was 90 nM; that for `CC(=O)N[C@@H](C)c1ccc(C2CCN(c3ccnc(OCc4ccncc4)c3)CC2)cc1` [Example 19.38] was 1200 nM; that for `CC(=O)N[C@@H](C)c1ccc(C2CCN(c3ncc(C(=O)NCCN4CCCCC4)cn3)CC2)cc1` [Example 18.59] was 18500 nM. In the case of `CC(=O)N[C@@H](C)c1ccc(C2CCN(c3ncc(C(=O)NC4CC4(F)F)cn3)CC2)cc1` (stereo partly shown) [Example 18.30] it was 5200 nM; in that of `CC(=O)N[C@@H](C)c1ccc(C2CCN(c3ncc(-c4ccccc4F)cn3)CC2)cc1` [Example 10.13], 90 nM. The value for `C[C@H](NC(=O)N(C)C)c1ccc(C2CCN(c3ccc(OC4CCCC4)cc3)CC2)cc1` [Example 1.125] was 100 nM. As to `CC(=O)N[C@@H](C)c1ccc(C2CCN(c3ncc(C(=O)NCCN4CCCC4)cn3)CC2)cc1` [Example 18.51], the IC50 was 13800 nM. Consider `CC(=O)N[C@@H](C)c1ccc(C2CCN(c3ccnc(OCc4cccnc4)n3)CC2)cc1` [Example 11.34], for which the IC50 came to 23200 nM. In the case of `CC(=O)N[C@@H](C)c1ccc(C2CCN(c3ncc(-c4ccncc4)cn3)CC2)cc1` [Example 10.16] it was 710 nM; in that of `CC(=O)N[C@@H](C)c1ccc(C2CCN(c3cc(C)c4ccccc4n3)CC2)cc1` [Example 4.4], 1800 nM; in that of `CC(=O)N[C@@H](C)c1ccc(C2CCN(c3cc(N4CCC4)ncn3)CC2)cc1` [Example 11.99], 2500 nM.

Take `CC(=O)N[C@@H](C)c1ccc(C2CCN(c3ncc(C(=O)NCCS(C)(=O)=O)cn3)CC2)cc1` [Example 18.64]: the IC50 was determined as 25400 nM. As for `CC(=O)N[C@@H](C)c1ccc(C2CCN(c3ncc(-c4cccc(CC#N)c4)cn3)CC2)cc1` [Example 10.123], the half-inhibitory concentration (IC50) stood at 420 nM. Regarding `CC(=O)N[C@@H](C)c1ccc(C2CCN(c3ncc(C(=O)NCC(O)C(F)(F)F)cn3)CC2)cc1` (stereo partly shown) [Example 18.63], the IC50 turned out to be 23100 nM. With `CC(=O)N[C@@H](C)c1ccc(C2CCN(c3ncc(-c4cc5ccc(C)cc5[nH]4)cn3)CC2)cc1` [Example 10.116], the IC50 was found to be 460 nM. For `CC(=O)N[C@@H](C)c1ccc(C2CCN(c3ccc(-c4ccc5[nH]ccc5c4)cn3)CC2)cc1` [Example 10.301], the IC50 was 320 nM. `CC(=O)N[C@@H](C)c1ccc(C2CCN(c3ccc4oc(-c5ccccc5)nc4c3)CC2)cc1` [Example 1.71]: the IC50 came to 80 nM. As to `CC(=O)N[C@@H](C)c1ccc(C2CCN(c3cccc(OCc4cc(C)on4)c3)CC2)cc1` [Example 9.11], the IC50 worked out at 170 nM.

`CCCCNc1cc(N2CCC(c3ccc([C@H](C)NC(C)=O)cc3)CC2)ncn1` [Example 11.62]: the IC50 was 3300 nM. In the case of `CC(=O)N[C@@H](C)c1ccc(C2CCN(c3ncc(C(=O)N(C)C4CC4)cn3)CC2)cc1` [Example 18.26] it was 2500 nM. Consider `CC(=O)N[C@@H](C)c1ccc(C2CCN(c3ncc(-c4cccc5[nH]ccc45)cn3)CC2)cc1` [Example 10.120], for which the IC50 came to 740 nM. Turning to `CC(=O)NC(C)Cc1ccc(C2CCN(c3ccnc(N(C)C4CCCC4)n3)CC2)cc1` (stereo not shown) [Example 12.1, N-[2-(4-{1-[2-(Cyclopentyl-methyl-amino)-pyrimidin-4-yl]-piperidin-4-yl}-phenyl)-1-methyl-ethyl]-acetamide], the IC50 is 610 nM. Regarding `CC(=O)N[C@@H](C)c1ccc(C2CCN(c3ncc(-c4ccc(O)c(Cl)c4)cn3)CC2)cc1` [Example 10.78], the IC50 is 200 nM.

Turning to `C[C@H](NC(=O)C1CC1)c1ccc(C2CCN(c3ccnc(Oc4cncnc4)c3)CC2)cc1` [Example 1.108], the IC50 turned out to be 930 nM. In the case of `CC(=O)N[C@@H](C)c1ccc(C2CCN(c3ccc(C(F)(F)F)nc3)CC2)cc1` [Example 15.8] it was 8400 nM. With `C[C@H](NC(=O)C1CC1)c1ccc(C2CCN(c3ccc(OCC4CC4(F)F)cc3)CC2)cc1` (stereo partly shown) [Example 1.139], the IC50 amounted to 70 nM. `CC(=O)N[C@@H](C)c1ccc(C2CCN(c3ncc(C(=O)N(C)Cc4ccccn4)cn3)CC2)cc1` [Example 18.37]: the IC50 stood at 6400 nM. The value for `CCOc1ccnc(N2CCC(c3ccc([C@H](C)NC(C)=O)cc3)CC2)c1` [Example 5.47] was 800 nM; that for `CCSc1ccc(-c2cnc(N3CCC(c4ccc([C@H](C)NC(C)=O)cc4)CC3)nc2)cc1` [Example 10.64] was 7000 nM; that for `CCC(C)Oc1ccc(N2CCC(c3ccc([C@H](C)NC(C)=O)cc3)CC2)cc1C#N` (stereo partly shown) [Example 8.52] was 3000 nM.

Consider `CC(=O)N[C@@H](C)c1ccc(C2CCN(c3ccnc(C)n3)CC2)cc1` [Example 5.26], for which the IC50 is 9000 nM. In the case of `CC(=O)N[C@@H](C)c1ccc(C2CCN(c3nc4ccccc4n3C)CC2)cc1` [Example 4.12] it was 11600 nM; in that of `CC(=O)N[C@@H](C)c1ccc(C2CCN(c3ccnc(N4CCCCC4)n3)CC2)cc1` [Example 11.58], 260 nM; in that of `CCCN(C)c1nccc(N2CCC(c3ccc([C@H](C)NC(C)=O)cc3)CC2)n1` [Example 11.69], 200 nM. Consider `CC(=O)N[C@@H](C)c1ccc(C2CCN(c3ccnc(NCCC4CC4)n3)CC2)cc1` [Example 11.106], for which the IC50 came out at 1600 nM.
